Literature values as cited in patent publication US8183280B2, “FAP inhibitors” (Vantia Limited, priority 2005, dated 2012).

System: syngeneic tumours
Details: mice, oral administration; Cancer Res., 2004, 64: 5471

CC(C)[C@H](N)C(=O)N1CCC[C@H]1B(O)O [ValboroPro]
anti-tumour activity: potent anti-tumour activity in mice
